Converted amounts (≈) assume the structure as drawn. Where two headings read alike, the source gives them in different places.
Experiments:
[1] = test system: Ehrlich ascites tumor (EAT) cells; conditions: cited from earlier work
[2] = test system: P. berghei; conditions: cited from earlier work
[3] = test system: chloroquine-sensitive P. falciparum (NF54); assay: In vitro antimalarial activity ([3H]hypoxanthine incorporation); type: cell-based
[4] = test system: murine keratinocyte cell line PE; assay: Growth inhibition of murine keratinocytes (MTT); type: cell-based, murine (SENCAR mice); conditions: 100 nanomolar
Procedure: To determine the inhibitory effect of the compositions of the present invention on cell proliferation, screening assays were performed on a murine keratinocyte cell line PE. Cell line PE was chosen for its particular sensitivity to the induction of ornithine decarboxylase (ODC) activity by the extensively characterized tumor promoter TPA. […] PE cell culture medium consisted of Eagle's minimal essential medium without calcium chloride (Whittaker Bioproducts, Walkersville, Mass.) supplemented with 8% chelexed fetal calf serum and 1% antibiotic-antimycotic (Gibco BRL) and the addition of CaCl2 to 0.05 mM Ca^++.
MTT [3-(4,5-dimethylthiazol-2-yl)-2,5-diphenyltetraxolium bromide] was purchased from Sigma Chemical Co. (St. Louis, Mo.), and TPA was supplied by L.C. Services (Woburn, Mass.). L-[^14 C]omithine (56 μCi/mol) was from Amersham/Searle Corp. (Arlington Heights, Ill.). Chemical solvents used in all assays of biological activity were of the highest grade commercially available.
Growth Inhibition. Growth curves, shown in FIGS. 1-5, for PE cells treated with calcitriol and the C-10 carbon-substituted dimers 38, 39, 43, 44, 45, 47 and 48, and monomer 27 generated by assay for the reduction of the tetrazolium-based compound MTT, see Charmichael, et al., Cancer Res., 47:936-942 (1987). […] PE cells were seeded at a density of 5,000 cells/well in 50 μL of medium into 96-well microtiter plates. Twelve hours later, the medium was removed, and cells were treated with 100 μL of fresh medium into which the appropriate amount of calcitriol or analog dissolved in dimethyl sulfoxide (DMSO) had been added, with the concentration of DMSO held constant at 0.1%. […] At 24-hour intervals following the initial treatment of the cells with compounds, 0.1 mg (50 μL of a 2 mg/mL solution) of MTT was added to each well. After 4 hours, the MTT was removed and DMSO added to dissolve the blue formazan dye. Using a microtiter plate reader, the A505 was then determined and cell number calculated from blank-subtracted absorbance values.

[5] = test system: malaria; assay: In vivo antimalarial activity; set-up: species or system rodents
[6] = Water solubility at pH 7.4; type: physicochemical; conditions: pH 7.4, water
Procedure: Often, solubility in water is a desirable feature of a new drug candidate. Since organic compounds bearing one or more carboxylic acid groups or phenolic groups are usually water soluble at physiological pH, we have prepared a series of 10-carbon-substituted trioxane carboxylic acids via alkene oxidation and ester saponification. Also, bisphenol (34) was prepared by hydrolysis of the corresponding bis-silyl ether.

[7] = Stability (hydrolysis); type: physicochemical
[8] = In vivo acute toxicity testing; conditions: preliminary
[9] = Plasmodium falciparum, chloroquine-sensitive P. falciparum NF54, in vitro
[10] = sc; read-out: ED50 subcutaneous
[11] = sc; read-out: ED90 subcutaneous

What does the source list for `C[C@@H]1CC[C@H]2[C@@H](C)C(OC3O[C@@H]4O[C@@]5(C)CC[C@H]6[C@H](C)CC[C@@H]([C@H]3C)[C@@]46OO5)O[C@@H]3O[C@@]4(C)CC[C@@H]1[C@]32OO4` (stereo partly drawn) [II-7]?
IC50 ([1]; MTT, growth inhibition): 1400 nM; cytotoxicity relative to artemisinin (times more cytotoxic) [1]: approximately twenty-two; cytotoxicity relative to dihydroartemisinin (times more cytotoxic) [1]: sixty; SD90 ([2]; P. berghei-infected mice, parasitemia 90 percent suppressed): 10 mg/kg; in vivo potency relative to artemisinin ([2]; P. berghei-infected mice): less potent than artemisinin

With `CO[C@H]1O[C@@H]2O[C@@]3(C)CC[C@H]4[C@H](C)CC[C@@H]([C@H]1C)[C@@]24OO3` [Artemether, reference compound] as the compound, how does the “in vitro antimalarial potency relative to artemisinin” value ([3]; P. falciparum NF54) read?
The value was “more potent than artemisinin”.

With `COc1cc(OC)c(C2OC3OC4(C)CCC5C(C)CCC(C2C)C35OO4)cc1C1OC2OC3(C)CCC4C(C)CCC(C1C)C24OO3` (stereo not drawn) [Dimer 43] as the compound, how does the “antiproliferative activity relative to calcitriol” value [4] read?
Its value is “at least as antiproliferative as calcitriol”.

For `COc1ccc([C@@H]2O[C@@H]3O[C@@]4(C)CC[C@H]5[C@H](C)CC[C@@H]([C@H]2C)[C@@]35OO4)c(OC)c1` [Monomer 13], which IC50 ([3]; survey data (preliminary), P. falciparum NF54) is on record?
Its IC50 is 8.9 nM.

For `C[C@H]1[C@H](c2ccc(C(C)(C)C)o2)O[C@@H]2O[C@@]3(C)CC[C@H]4[C@H](C)CC[C@@H]1[C@@]24OO3` [Monomer 17d], which IC50 [3, 9] is on record?
The IC50 was 10 nM.

For `COc1cc(OC)c([C@@H]2O[C@@H]3O[C@@]4(C)CC[C@H]5[C@H](C)CC[C@@H]([C@H]2C)[C@@]35OO4)c(OC)c1` [Monomer 14], which IC50 [3, 9] is on record?
Its IC50 is 7.8 nM.

With `C[C@H]1[C@H](c2cccs2)O[C@@H]2O[C@@]3(C)CC[C@H]4[C@H](C)CC[C@@H]1[C@@]24OO3` [Monomer 18] as the compound, how does the IC50 [3, 9] read?
Its IC50 is 5.1 nM.

Which “antiproliferative activity relative to calcitriol” value [4] does the source give for `CC1CCC2C(C)C(c3ccc(C(c4ccccc4)c4ccc(C5OC6OC7(C)CCC8C(C)CCC(C5C)C68OO7)n4C)n3C)OC3OC4(C)CCC1C32OO4` (stereo not drawn) [Dimer 48] here?
The value was “at least as antiproliferative as calcitriol”.

What does the source list for `CCN(CC)CCCC(C)Nc1ccnc2cc(Cl)ccc12` (stereo not drawn) [Chloroquine, reference compound]?
ED50 ([5]; sc, read-out: ED50 subcutaneous): 1.8 mg/kg; ED90 ([5]; sc, read-out: ED90 subcutaneous): 3.1 mg/kg

For `C[C@H]1[C@H](c2ccc(O)cc2O)O[C@@H]2O[C@@]3(C)CC[C@H]4[C@H](C)CC[C@@H]1[C@@]24OO3` [Monomer 13d], which solubility [6] is on record?
The solubility was under 3 mM.

With `CC1CCC2C(C)C(c3cccn3C)OC3OC4(C)CCC1C32OO4` (stereo not drawn) [Monomer 16a, 10α-(N-methylpyrrol-2'-yl)deoxoartemisinin] as the compound, how does the ED50 ([5]; po; read-out: ED50 oral) read?
The ED50 was 4.5 mg/kg.

And the ED90 ([5]; po; read-out: ED90 oral)?
The ED90 was 8.5 mg/kg.

And the ED50 [5, 10]?
Its ED50 is 0.7 mg/kg.

What about the ED90 [5, 11] of the same compound?
Its ED90 is 1.2 mg/kg.

What about the “in vitro antimalarial potency relative to artemisinin” value ([3]; P. falciparum NF54) of the same compound?
Its value is “more potent than artemisinin”.

What about the IC50 [3, 9] of the same compound?
The IC50 was 4.6 nM.

What about the stability [7] of the same compound?
Its stability is “Hydrolytically stable”.

Which IC50 [3, 9] does the source give for `COc1ccc2cc(C3OC4OC5(C)CCC6C(C)CCC(C3C)C46OO5)c(OC)cc2c1` (stereo not drawn) [Monomer 15, 10α-(2',7'-dimethoxynaphth-3'-yl)deoxoartemisinin] here?
The IC50 was 9 nM.

Which “antiproliferative activity relative to calcitriol” value [4] does the source give for `CC1CCC2C(C)C(c3ccc(C4OC5OC6(C)CCC7C(C)CCC(C4C)C57OO6)o3)OC3OC4(C)CCC1C32OO4` (stereo not drawn) [Dimer 47] here?
The value was “at least as antiproliferative as calcitriol”.

With `CC1=CO[C@@H]2O[C@@]3(C)CC[C@H]4[C@H](C)CC[C@@H]1[C@@]24OO3` [olefinic compound III] as the compound, how does the “activity against P. berghei-infected mice” value [2] read?
Its value is “inactive”.

Which ED50 ([5]; po; read-out: ED50 oral) does the source give for `CC1CCC2C(C)C(c3ccco3)OC3OC4(C)CCC1C32OO4` (stereo not drawn) [Monomer 17a, 10α-(2'-Furyl)-10-deoxoartemisinin] here?
The ED50 was 9.5 mg/kg.

And the ED90 ([5]; po; read-out: ED90 oral)?
Its ED90 is 24 mg/kg.

And the ED50 [5, 10]?
The ED50 was 1.2 mg/kg.

And the ED90 [5, 11]?
Its ED90 is 2 mg/kg.

And the “in vitro antimalarial potency relative to artemisinin” value ([3]; P. falciparum NF54)?
Its value is “more potent than artemisinin”.

What about the IC50 [3, 9] of the same compound?
Its IC50 is 1.4 nM.

What about the stability [7] of the same compound?
The stability was “Hydrolytically stable”.

And the “in vivo acute toxicity testing” value [8]?
Its value is “relative safety”.

With `CCc1ccc([C@@H]2O[C@@H]3O[C@@]4(C)CC[C@H]5[C@H](C)CC[C@@H]([C@H]2C)[C@@]35OO4)o1` [Monomer 17c] as the compound, how does the IC50 [3, 9] read?
Its IC50 is 8.6 nM.

Which “antiproliferative activity relative to calcitriol” value [4] does the source give for `CC1CCC2C(C)C(C#Cc3cccc(C#CC4OC5OC6(C)CCC7C(C)CCC(C4C)C57OO6)c3)OC3OC4(C)CCC1C32OO4` (stereo not drawn) [Dimer 44] here?
The value was “at least as antiproliferative as calcitriol”.

With `Cc1ccc([C@@H]2O[C@@H]3O[C@@]4(C)CC[C@H]5[C@H](C)CC[C@@H]([C@H]2C)[C@@]35OO4)o1` [Monomer 17b] as the compound, how does the ED50 ([5]; po; read-out: ED50 oral) read?
Its ED50 is 15.5 mg/kg.

And the ED90 ([5]; po; read-out: ED90 oral)?
The ED90 was 43 mg/kg.

What about the ED50 [5, 10] of the same compound?
Its ED50 is 0.9 mg/kg.

And the ED90 [5, 11]?
The ED90 was 2 mg/kg.

What about the IC50 [3, 9] of the same compound?
The IC50 was 5.2 nM.

And the stability [7]?
Its stability is “Hydrolytically stable”.

What about the “in vivo acute toxicity testing” value [8] of the same compound?
Its value is “relative safety”.

Which IC50 [3, 9] does the source give for `CCOC(=O)Cn1cccc1[C@@H]1O[C@@H]2O[C@@]3(C)CC[C@H]4[C@H](C)CC[C@@H]([C@H]1C)[C@@]24OO3` [Monomer 16d, 10α-(1'-(Ethoxycarbonylmethyl)pyrrol-2'-yl)-10-deoxoartemisinin] here?
Its IC50 is 9.1 nM.

Which results are given for `COc1ccc(C2OC3OC4(C)CCC5C(C)CCC(C2C)C35OO4)c(OC)c1` (stereo not drawn) [Monomer 13a, 10α-(1',3'-Dimethoxyphenyl)deoxoartemisininin]?
in vitro antimalarial potency relative to artemisinin ([3]; P. falciparum NF54): more potent than artemisinin; IC50 [3, 9]: 4.2 nM

With `CC1CCC2C(C)C(c3cccn3CC(=O)O)OC3OC4(C)CCC1C32OO4` (stereo not drawn) [Monomer 16e] as the compound, how does the solubility [6] read?
Its solubility is 10 mM (≈ 3910 µg/mL).

For `C=CCOc1ccc([C@@H]2O[C@@H]3O[C@@]4(C)CC[C@H]5[C@H](C)CC[C@@H]([C@H]2C)[C@@]35OO4)c(OCC=C)c1` [Monomer 13b], which IC50 [3, 9] is on record?
Its IC50 is 6.6 nM.

For `C[C@H]1[C@H](c2cccn2Cc2ccccc2)O[C@@H]2O[C@@]3(C)CC[C@H]4[C@H](C)CC[C@@H]1[C@@]24OO3` [Monomer 16b], which IC50 [3, 9] is on record?
Its IC50 is 16 nM.

For `CC1CCC2C(C)C(C#Cc3ccc(C#CC4OC5OC6(C)CCC7C(C)CCC(C4C)C57OO6)cc3)OC3OC4(C)CCC1C32OO4` (stereo not drawn) [Dimer 45, C-10 p-Diethynylbenzene 10-deoxoartemisinin Dimer], which “antiproliferative activity relative to calcitriol” value [4] is on record?
Its value is “at least as antiproliferative as calcitriol”.

With `CC1CCC2C(C)C(C(=O)O)OC3OC4(C)CCC1C32OO4` (stereo not drawn) [Monomer 33] as the compound, how does the solubility [6] read?
Its solubility is 30 mM (≈ 9370 µg/mL).

With `CC1CCC2C(C)C(c3cn(C)c4ccccc34)OC3OC4(C)CCC1C32OO4` (stereo not drawn) [Monomer 19] as the compound, how does the IC50 [3, 9] read?
Its IC50 is 4 nM.

Source: patent US6160004A, “C-10 carbon-substituted artemisinin-like trioxane compounds having antimalarial, antiproliferative and antitumor activities” (priority 1998, dated 2000)
